Reference: patent publication EP0019589A1, “Tripeptide derivatives and their use in a process for determining enzymes” (Pentapharm A.G., priority 1979, dated 1980)
Non-standard residues stand in square brackets, D forms with d. Residues, ends and D or L forms follow the SMILES beside them. *: point of attachment. Cha = N[C@@H](CC1CCCCC1)C(=O)O; dCha = N[C@H](CC1CCCCC1)C(=O)O; dChg = N[C@@H](C(=O)O)C1CCCCC1; dPhg = N[C@@H](C(=O)O)c1ccccc1; pNA = O=[N+]([O-])c1ccc(N*)cc1; Chg = N[C@H](C(=O)O)C1CCCCC1

Columns and labels:
Type in all cases: biochemical
Urinkallikrein = target: T1, Urinkallikrein (Homo sapiens, UniProt P06870); assay: Cleavage of chromogenic substrate by urinary kallikrein in human urine; conditions: 1 ml human urine (pooled morning urine of healthy persons), per min; Substratkonzentration 2 x 10^-4 molar
T1 construct: 1 ml Urin und 1 ml TRIS-Imidazol-Puffer mit pH 7,9; from tissue; host or cells: human urine
T1 sequence (P06870 25-262): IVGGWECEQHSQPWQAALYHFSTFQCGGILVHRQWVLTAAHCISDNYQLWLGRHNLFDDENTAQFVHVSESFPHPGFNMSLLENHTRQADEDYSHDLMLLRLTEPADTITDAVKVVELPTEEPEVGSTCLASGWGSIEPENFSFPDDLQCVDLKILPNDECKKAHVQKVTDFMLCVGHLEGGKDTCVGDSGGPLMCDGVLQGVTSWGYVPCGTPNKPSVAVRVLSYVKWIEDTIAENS
Protocol: 1. Bestimmung von Urinkallikrein.
1 ml Urin und 1 ml TRIS-Imidazol-Puffer mit pH 7,9 und Ionenstärke 1,0 werden 5 Min. bei 37°C inkubiert undcänn zentrifugiert, um Sedimente zu entfernen.
In einer-Plastikküvette werden 1,4 ml dest. H20 von 37°C und 0,4 ml des Zentrifugats gut gemischt. Zu dieser Mischung gibt man 0,2 ml einer 2 x 10^-3 molaren wässrigen Substratlösung und durchmischt die Komponenten schnell. Dieses Gemisch wird genau 15 Min. bei 37°C inkubiert. Dann wird dem Reaktionsgemisch 0,2 ml Eisessig zugemischt, um die Enzymreaktion zu unterbrechen. Zur Farbmessung verwendet man eine Vergleichsprobe (Blindprobe), die aus den gleichen Komponenten zusammengesetzt ist, wobei jedoch der Eisessig vor Zugabe des Substrates zugesetzt wird, um die Enzymreaktion zu verhindern. Dann wird bei 405 nm photometrisch oder spektrophotometrisch die Menge der gebildeten farbigen Verbindung RNH 2 aus der Differenz zwischen der Blindprobe und der zu bestimmenden Probe ermittelt. Aus dem ermittelten Wert wird die Urinkallikreinaktivität im Urin nach der folgenden Formel berechnet: [formula] • Δ OD = Zunahme der optischen Dichte bei 405 nm während 15 Min. • V = Totalvolumen des Bestimmungsansatzes = 2,2 ml • 1000 = Umrechnungsfaktor zur Umwandlung von U in mU • F = Verdünnungsfaktor des Urins (2) • v = Volumen der Probe = 0,4 ml • ε = Extinktionskoeffizient dividiert durch 1000 = 10,4
Bei der oben beschriebenen Bestimmungsmethode misst man somit die Summe der Aktivitäten von Urinkallikrein und Urokinase. Um die genaue Urinkallikreinaktivität zu erhalten, muss man die Urokinaseaktivität abziehen, welche dadurch bestimmt werden kann, dass man in einem Vergleichsversuch durch Zugabe von 0,075 Einheiten Trypsininhibitor (Trypsininhibitor aus Rinderlunge) pro ml Puffer die Urinkallikreinaktivität vollständig hemmt und nur die Urokinaseaktivität misst.
(§1) Bei der Messung des durch die enzymatische Hydrolyse des Substrates gebildeten Spaltproduktes RrNH2 geht man von der Voraussetzung aus, dass das Spaltprodukt ein UV-Spektrum besitzt, das von demjenigen des Substrates verschieden und in Richtung höherer Wellenlängen verschoben ist. Die Absorption des Substrates bei 405 nm ist praktisch Null. p-Nitroanilin als Spaltprodukt weist ein Absorptionsmaximum bei 380 nm und einen molaren Extinktionskoeffizienten von 13'200 auf. Bei 405 nm ist der Extinktionskoeffizient nur wenig niedriger, d.h. […] Der Grad der enzymatischen Hydrolyse des Substrates, welcher der Menge des abgespaltenen p-Nitroanilins proportional ist, lässt sich durch spektrophotometrische Messung bei 405 nm bestimmen. Auch bei Anwesenheit eines Ueberschusses an Substrat wird die Messung bei 405 nm nicht gestört.
(§2) Bei den Substraten, die als chromogene Gruppe eine 2-Naphthylamino-, 4-Methoxy-2-naphthylamino-, 4-Methyl-cumaryl-(7)-amino- oder 1,3-Di(methoxycarbonyl)-phenyl-(5)-amino-Gruppe enthalten, wird die Menge des Spaltproduktes R-NH2 durch Fluoreszenzspektrophotometrie gemessen. In einem aus Enzym, Puffer und Substrat bestehenden Testsystem misst man kontinuierlich das energieärmere emittierte Licht bei 400-470 nm, nachdem man das gebildete fluoreszierende Spaltprodukt mit energiereicherem Licht erregt hat. Die pro Zeiteinheit gebildete Menge Spaltprodukt ist ein Mass für die vorhandene Enzymaktivität. 1 µMol Spaltprodukt pro Minute entspricht definitionsgemäss 1 Enzym-Einheit, bezogen auf ein gegebenes Substrat.

Humanplasmin = target: T2, Humanplasmin (Homo sapiens, UniProt P00747); assay: Cleavage of chromogenic substrate by human plasmin; conditions: 1 CU-Einheit human plasmin, per min; Substratkonzentration 2 x 10^-4 molar
T2 construct: da bei der Aktivierung aus 1 Molekül Plasminogen 1 Molekül Plasmin entsteht
T2 sequence (P00747 581-810 limits assumed): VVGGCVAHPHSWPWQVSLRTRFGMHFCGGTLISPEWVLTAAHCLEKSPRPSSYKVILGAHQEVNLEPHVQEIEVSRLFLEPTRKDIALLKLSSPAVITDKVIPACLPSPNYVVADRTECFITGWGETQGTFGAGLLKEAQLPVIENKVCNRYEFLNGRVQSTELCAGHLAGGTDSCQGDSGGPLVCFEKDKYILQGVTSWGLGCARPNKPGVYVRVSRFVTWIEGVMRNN
T2 sequence (P00747 97-580 partner limits assumed): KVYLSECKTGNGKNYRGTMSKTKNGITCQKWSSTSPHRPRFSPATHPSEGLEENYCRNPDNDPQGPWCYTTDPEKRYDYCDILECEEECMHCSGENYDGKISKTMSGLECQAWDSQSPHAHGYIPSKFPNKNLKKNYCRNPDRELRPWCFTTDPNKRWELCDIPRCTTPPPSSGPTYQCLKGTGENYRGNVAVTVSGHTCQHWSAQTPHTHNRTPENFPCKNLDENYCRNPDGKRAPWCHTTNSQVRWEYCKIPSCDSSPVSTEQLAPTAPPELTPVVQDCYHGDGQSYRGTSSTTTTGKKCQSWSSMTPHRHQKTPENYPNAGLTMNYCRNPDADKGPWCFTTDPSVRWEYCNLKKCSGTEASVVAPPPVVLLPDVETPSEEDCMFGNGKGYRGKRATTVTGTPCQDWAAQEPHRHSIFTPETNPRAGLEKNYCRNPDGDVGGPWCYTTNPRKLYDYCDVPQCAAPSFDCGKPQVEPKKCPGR
Protocol: 3. Bestimmung von Plasmin:
Man mischt 1,7 ml TRIS-Imidazol-Puffer (pH 7,5, Ionenstärke 0,2) bei 37°C mit 0,1 ml einer Lösung von Plasmin in 25%igem Glycerin und inkubiert die Mischung während 1 Min. bei 37°C. Dann gibt man der Mischung 0,2 ml einer wässrigen 2 x 10^-3 molaren Substxatlösung von 37°C zu und durchmischt das Ganze schnell. Man ermittelt dann kontinuierlich die pro Zeiteinheit aus dem Substrat freigesetzte Menge des Spaltproduktes R-NH2. Aus dem pro Min. ermittelten Wert berechnet man dann die Plasminaktivität pro ml Probe in mU nach der folgenden Formel: [formula] • ΔE = pro Min. freigesetzte Menge des Spaltproduktes • V = Totalvolumen des Testansatzes • v = Volumen der Probe • = Extinktionskoeffizient dividiert durch 1000
as §1, §2

Humanthrombin = target: T3, Humanthrombin (Homo sapiens, UniProt P00734); assay: Cleavage of chromogenic substrate by human NIH thrombin; conditions: 1 NIH-Einheit human thrombin, per min; Substratkonzentration 2 x 10^-4 molar
T3 construct: Humanplasmin und hu-manem NIH-Thrombin
From the text: as §1, §2

[1] = target: T4, Submandibularis-Kallikrein (Homo sapiens, UniProt P06870); assay: Cleavage of chromogenic substrate by submandibular (glandular) kallikrein in human sputum; conditions: 1 ml human sputum, per min; Substratkonzentration 2 x 10^-4 molar
T4 construct: Man mischt 0,5 ml Sputum mit 2 ml TRIS-Imidazol-Puffer; from tissue; host or cells: human sputum
T4 sequence (P06870 25-262): as the sequence (P06870 25-262) above
Protocol: 2. Bestimmung des Glandulärkallikreins im Sputum: • Man mischt 0,5 ml Sputum mit 2 ml TRIS-Imidazol-Puffer (Ionenstärke 1,0) und präinkubiert die Mischung 5 Min. bei 37°C. Das Inkubat wird zentrifugiert. In eine Testküvette wird 1,5 ml dest. H2O von 37°C vorgelegt und mit 0,25 ml des Zentrifugats versetzt. Die Komponenten werden gut gemischt. Dann wird 0,2 ml 2 x 10-^3 molare wässrige Substratlösung zugesetzt und gemischt. Dann wird bei 405 nm die Extinktions- änderung kontinuierlich mittels eines Schreibers während 5-10 Min. verfolgt. Aus dem ermittelten Δ OD pro Min. wird mittels der nachstehenden Formel die Kallikreinaktivität pro ml Sputum in mU errechnet: [formula] • F = 5 • V = 1,95 • v = 0,25 • 1 U (Einheit) = Enzymmenge, die während 1 Min. 1 µMol Substrat unter optimalen oder sonst festgelegten Bedingungen in Bezug auf pH, Ionenstärke, Temperatur und Substratkonzentration zu spalten vermag
as §1, with “gestört. […]” for “gestört.”

SMILES | Menge des durch 1 ml Humanurin pro Min. freigesetzten Spaltproduktes R-NH2 in Nanomol (Urinkallikrein) (Urinkallikrein) | Menge des durch 1 CU-Einheit Humanplasmin pro Min. freigesetzten Spaltproduktes R-NH2 in Nanomol (Humanplasmin) (Humanplasmin) [Nanomol] | Menge des durch 1 NIH-Einheit Thrombin pro Min. freigesetzten Spaltproduktes R-NH2 in Nanomol (Humanthrombin) (Humanthrombin) | Menge des durch 1 ml Humansputum pro Min. freigesetzten Spaltproduktes R-NH2 in Nanomol (Submandibularis-Kallikrein) [1]
N=C(N)NCCC[C@H](NC(=O)[C@H](CC1CCCCC1)NC(=O)[C@H]1CCCN1)C(=O)Nc1ccc([N+](=O)[O-])cc1 [Beispiel 22, 2HBr.H-D-Pro-CHA-Arg-pNA] (H-[dP]-[Cha]-Arg-pNA) | 0,63 Nanomol | 250 | 0,75 Nanomol | 11,7 Nanomol
N=C(N)NCCC[C@H](NC(=O)[C@@H](NC(=O)[C@H]1CCCN1)C1CCCCC1)C(=O)Nc1ccc([N+](=O)[O-])cc1 [Beispiel 24, 2HBr.H-D-Pro-CHG-Arg-pNA] (H-[dP]-[Chg]-Arg-pNA) | 1,87 Nanomol | 10 | 0,29 Nanomol | 5,7 Nanomol
N=C(N)NCCC[C@H](NC(=O)[C@H](CC1CCC(O)CC1)NC(=O)[C@H]1CCCN1)C(=O)Nc1ccc([N+](=O)[O-])cc1 (stereo partly drawn) [Beispiel 25, 2HBr.H-D-Pro-CHT-Arg-pNA] | 0,52 Nanomol | 390 | 1,52 Nanomol | 10,7 Nanomol
CC(C)C[C@H](NC(=O)[C@H](N)c1ccccc1)C(=O)N[C@@H](CCCNC(=N)N)C(=O)Nc1ccc([N+](=O)[O-])cc1 [Beispiel 26, 2HBr.H-D-Ph'Gly-Leu-Arg-pNA] (H-[dPhg]-Leu-Arg-pNA) | 0,19 Nanomol | 194 | 0,8 Nanomol | 8,3 Nanomol
N=C(N)NCCC[C@H](NC(=O)[C@@H]1CCCN1C(=O)[C@H](N)C1CCCCC1)C(=O)Nc1ccc([N+](=O)[O-])cc1 [Beispiel 27, 2HBr.H-D-CHG-Pro-Arg-pNA] (H-[dChg]-Pro-Arg-pNA) | 0,33 Nanomol | 511 | 96,3 Nanomol | 12,9 Nanomol
N=C(N)NCCC[C@H](NC(=O)[C@@H]1CCCCN1C(=O)[C@H](N)CC1CCC(O)CC1)C(=O)Nc1ccc([N+](=O)[O-])cc1 (stereo partly drawn) [Beispiel 28, 2HBr.H-D-CHT-Pip-Arg-pNA] | 0 Nanomol | 122 | 80,4 Nanomol | 9,9 Nanomol
NCCCC[C@H](NC(=O)[C@@H]1CCCN1C(=O)[C@H](N)CC1CCCCC1)C(=O)Nc1ccc([N+](=O)[O-])cc1 [Beispiel 29, 2AcOH.H-D-CHA-Pro-Lys-pNA] (H-[dCha]-Pro-Lys-pNA) | 0,71 Nanomol | 639 | 4,54 Nanomol | 4,4 Nanomol
CC(C)[C@@H](N)C(=O)N[C@H](C(=O)N[C@@H](CCCCN)C(=O)Nc1ccc([N+](=O)[O-])cc1)C1CCCCC1 [Beispiel 30, 2AcOH.H-D-Val-CHG-Lys-pNA] (H-[dV]-[Chg]-Lys-pNA) | 0 Nanomol | 61 | 0,27 Nanomol | 1,3 Nanomol
NCCCC[C@H](NC(=O)[C@@H]1CCCN1C(=O)[C@H](N)C1CCCCC1)C(=O)Nc1ccc([N+](=O)[O-])cc1 [Beispiel 31, 2AcOH.H-D-CHG-Pro-Lys-pNA] (H-[dChg]-Pro-Lys-pNA) | 0 Nanomol | 231 | 3,78 Nanomol | 1,9 Nanomol
NCCCC[C@H](NC(=O)[C@@H]1CCCN1C(=O)[C@H](N)CC1CCC(O)CC1)C(=O)Nc1ccc([N+](=O)[O-])cc1 (stereo partly drawn) [Beispiel 32, 2AcOH.H-D-CHT-Pro-Lys-pNA] | 0,20 Nanomol | 613 | 0,8 Nanomol | 3,8 Nanomol
NCCCC[C@H](NC(=O)[C@H](CC1CCCCC1)NC(=O)[C@H](N)c1ccccc1)C(=O)Nc1ccc([N+](=O)[O-])cc1 [Beispiel 33, 2AcOH.H-D-Ph'Gly-CHA-Lys-pNA] (H-[dPhg]-[Cha]-Lys-pNA) | 0,10 Nanomol | 837 | 0,4 Nanomol | 0,9 Nanomol
